Data published in paper PMC12490239, “Combining BET inhibition with SMAC mimetics restricts tumor growth and triggers immune surveillance in preclinical cancer models” (Cell Reports Medicine, 2025).

Columns and labels:
Test in all cases: cells
Parameters in all cases: CellTiter-Glo 2.0 luminescence proliferation/viability assay, single agents, human tumour cell line panel
A549 = settings: Homo sapiens, A549, 96 h; single agent; read-out: IC50 SMACm
Outline: (§1)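 Human tumour cell lines were seeded into assay plates and held at 37°C with 5% CO2 for twenty-four hours, then exposed in triplicate to rising concentrations of the SMAC mimetic, from 4.5 nM to 10 μM, with DMSO as control. After 96 h, viability was read as CellTiter-Glo2.0 luminescence to derive single-agent IC50 values.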

AGS = settings: Homo sapiens, AGS, 96 h; single agent; read-out: IC50 SMACm
Outline: as §1

C106 = settings: 96 h; single agent; read-out: IC50 SMACm
Outline: as §1

C70 = settings: 96 h; single agent; read-out: IC50 SMACm
Outline: as §1

CAR1 = settings: Homo sapiens, CaR-1, 96 h; single agent; read-out: IC50 SMACm
Outline: as §1

COLO94H = settings: 96 h; single agent; read-out: IC50 SMACm
Outline: as §1

KM20 = settings: 96 h; single agent; read-out: IC50 SMACm
Outline: as §1

LS-411N = settings: Homo sapiens, LS-411N, 96 h; single agent; read-out: IC50 SMACm
Outline: as §1

LU-65 = settings: Homo sapiens, Lu-65, 96 h; single agent; read-out: IC50 SMACm
Outline: as §1

NCI-H2126 = settings: Homo sapiens, NCI-H2126, 96 h; single agent; read-out: IC50 SMACm
Outline: as §1

SK-LU-1 = settings: Homo sapiens, SK-LU-1, 96 h; single agent; read-out: IC50 SMACm
Outline: as §1

SNU-16 = settings: Homo sapiens, SNU-16, 96 h; single agent; read-out: IC50 SMACm
Outline: as §1

SNU-216 = settings: SNU-216, 96 h; single agent; read-out: IC50 SMACm
Outline: as §1

SNU-324 = settings: 96 h; single agent; read-out: IC50 SMACm
Outline: as §1

SNU977 = settings: 96 h; single agent; read-out: IC50 SMACm
Outline: as §1

`CN[C@@H](C)C(=O)Nc1ccc(-c2c(-c3cccnc3OC)nc3cc(C)ccn23)c(C#Cc2ccc3c(C)nccc3c2)n1` [SMACm, BI 891065] was tested, and the IC50 (A549) was greater than 10 µM, the IC50 (AGS) was 4.06 µM and the IC50 (C106) was 1.6 µM. The IC50 (C70) was 3.31 µM, the IC50 (CAR1) was 2.1 µM and the IC50 (COLO94H) was 4.69 µM. The IC50 (KM20) was 5.04 µM, the IC50 (LS-411N) was 4.43 µM and the IC50 (LU-65) was 4.35 µM. The IC50 (NCI-H2126) was 6.14 µM, the IC50 (SK-LU-1) was 0.495 µM and the IC50 (SNU-16) was 4.32 µM. For the same molecule, the IC50 (SNU-216) was 4.32 µM, the IC50 (SNU-324) was 4.7 µM and the IC50 (SNU977) was 2.88 µM.
